Assay results from ChEMBL document CHEMBL1932956, “Combination of two chromophores: synthesis and PDT application of porphyrin-pentamethinium conjugate” (Bioorg Med Chem Lett, 2012).
pIC50: −log10 of the molar value. Calls of active or inactive are those of the source. The rule behind the calls is not given here.

Columns and labels:
HL-60 [1] = experiment: Induction of apoptosis in human HL60 cells assessed as cell death measured after 24 hrs following photo irradiation by trypan blue assay; assay type: functional, cell-based
HL-60 [2] = experiment: Cytotoxicity against human HL60 cells assessed as cell viability; assay type: functional, cell-based
UB900518 = experiment: Antitumor activity against human UB900518 cells xenografted in mouse assessed as tumor regression at 5 mg/kg followed by photo irradiation measured after 72 hrs; assay type: functional, organism-based; design: dose 5 mg/kg
HL-60 [3] = experiment: Induction of apoptosis in human HL60 cells assessed as DNA fragmentation measured after 6 hrs following photo irradiation by trypan blue assay; assay type: functional, cell-based

| SMILES | Activity (HL-60 [1]) | pIC50 (HL-60 [2]) | Activity (UB900518) | Activity (HL-60 [3]) |
| --- | --- | --- | --- | --- |
| CN(C)/C=C/C(=C\C=[N+](C)C)c1c2nc(c(C(/C=C/N(C)C)=C/C=[N+](C)C)c3ccc([nH]3)c(C(/C=C/N(C)C)=C/C=[N+](C)C)c3nc(c(C(/C=C/N(C)C)=C/C=[N+](C)C)c4ccc1[nH]4)C=C3)C=C2 | Active | 5.52 | Active | Active |
| O=[N+]([O-])c1ccc(-[n+]2ccc(-c3c4nc(c(-c5cc[n+](-c6ccc([N+](=O)[O-])cc6[N+](=O)[O-])cc5)c5ccc([nH]5)c(-c5cc[n+](-c6ccc([N+](=O)[O-])cc6[N+](=O)[O-])cc5)c5nc(c(-c6cc[n+](-c7ccc([N+](=O)[O-])cc7[N+](=O)[O-])cc6)c6ccc3[nH]6)C=C5)C=C4)cc2)c([N+](=O)[O-])c1 | Active | 5.47 | – | Active |
